Each structure is given as a SMILES string. “And” between values parts separate entries of the source, which are not always exact repeats. Equal entries are not always repeated. “Also recorded” adds a separate entry of the source. Where two headings read alike, the source gives them in different places. Marks after values point to notes of the source that are not given here.

Results on seven molecules are retold here after PMC9784495, “Pharmacokinetic Comparison of Ginsenosides between Fermented and Non-Fermented Red Ginseng in Healthy Volunteers” (Pharmaceutics, 2022).

This data set can be described thus: Pharmacokinetics of ginsenosides in plasma after a single oral dose of 6 g FRG or RG, crossover clinical trial. The data set is classed as in vivo, human. The following applies: for AUC24 GMR (90% CI) / AUClast GMR (90% CI) / Cmax GMR (90% CI): geometric mean ratio FRG with respect to RG; for Tmax / AUC / Cmax / AUC(0-t): human, po. Here is the method: This study was designed as a randomized, open-label, single-dose, 2-sequence, 2-period crossover study with a washout period of 2 weeks to compare the pharmacokinetic parameters of ginsenosides in RG and FRG. All subjects underwent a screening test for enrollment in the current study, and the enrolled subjects were randomly allocated into one of two sequence groups: sequence 1, and sequence 2. The subjects in sequence group 1 were administered 6 g of FRG extract with 200 mL water in the first period, and 6 g of RG extract with 200 mL water in the second period, after a washout period of 2 weeks from the first administration. Subjects in sequence group 2 were administered 6 g of RG extract with 200 mL water in the first period, and then 6 g of FRG extract with 200 mL water in the second period, after the same washout period. During each period, for groups 1 and 2, subjects were hospitalized at the clinical trial center of Kyung Hee University Hospital at 5 PM the day before FRG or RG administration. They received a standardized dinner and fasted, except for drinking water, until FRG or RG administration. The following day, subjects were administered FRG or RG at 8 AM according to the assigned sequence group, and were not allowed to eat until 1 PM. All participants were provided lunch and dinner by the study staff. They were discharged at 2 PM the day after dosing with FRG or RG, and visited the clinical trial center at 8 AM the day after discharge. To assess pharmacokinetic parameters, blood samples (9 mL) were serially collected into heparinized tubes just before (0 h) the dose of FRG or RG, and after the dose of FRG or RG at the following time points: 0.5, 1, 2, 3, 4, 5, 6, 7, 8, 10, 12, 14, 24, and 30 h during hospitalization, and 48 h at the outpatient visit. Blood samples were placed into heparinized tubes and centrifuged immediately at 3500× g, 10 min, and −4 °C. Plasma was stored at −70 °C.
CY, CK, PPD, PPT, and Rh2 were analyzed as previously described. An Agilent 1200 series (Agilent Technologies, Santa Clara, CA, USA) or Shimadzu Nexera X2 (Shimadzu, Tokyo, Japan), and Applied Biosystems MDS SCIEX API 4000 Triple Quadrupole Mass Spectrometer (SCIEX, Framingham, MA, USA) with an ESI source in the negative ion mode, were used. Data were analyzed and processed using the Analyst 1.6.2 program (SCIEX, Framingham, MA, USA). Rb1 and F2 were analyzed using Elute UHPLC (Bruker, Billerica, MA, USA) and an EVOQ Elite triple quadrupole mass spectrometer (Bruker, Billerica, MA, USA) with an ESI source in positive ion mode. Data were acquired and processed using the Analyst 1.6.2 program (SCIEX, Framingham, MA, USA), and Bruker Daltonic MS Workstation 8.2.1 (Bruker, Billerica, MA, USA). Ginsenosides standards (Rb1, Rh2 and C-Y) were provided by the Ambo Institute (Daejeon, Republic of Korea). Ginsenosides standards (F2, CK, PPD and PPT) were provided by Ace Enzyme (Kyunggi-do, Republic of Korea). Digoxin, diphenhydramine hydrochloride, formic acid, ammonium acetate, and dimethyl sulfoxide were purchased from Sigma Aldrich (Saint Louis, MO, USA). Methanol, acetonitrile, ethyl acetate, and methyl tertiary butyl ether were purchased from J.T. Baker (Philipsburg, NJ, USA) and purified water for HPLC analysis was obtained using AQUA max® by Younglin (Kyunggi-do, Republic of Korea) water purification system. The final concentrations of the calibration standards were 0.5, 1, 2, 5, 10, 25, and 50 ng/mL, and those of the QC samples were 1.5, 7.5, and 40 ng/mL. The final concentrations of the CK calibration standard were 5, 50, 250, 500, 1000, 1500, and 2500 ng/mL, and those of the QC samples were 15, 1200, and 2000 ng/mL. The human plasma samples were taken out of the −70 °C freezer and thawed at room temperature for the bioanalysis. […]

The mark [1] stands for this setting: plasma, after 6 g FRG oral single dose, median (min, max), read-out: Tmax.
[2] abbreviates: plasma, plasma, after 6 g FRG oral single dose, 0 to 24 h, mean ± SD, read-out: AUC24.
Where [3] appears, read: plasma, plasma, after 6 g FRG oral single dose, healthy volunteers, mean ± SD, n = 15, read-out: Cmax.
[4] abbreviates: plasma, plasma, after 6 g FRG oral single dose, mean ± SD, read-out: AUClast.
The mark [5] stands for this setting: plasma, after 6 g RG oral single dose, median (min, max), read-out: Tmax.
Setting [6] is: plasma, plasma, after 6 g RG oral single dose, 0 to 24 h, mean ± SD, read-out: AUC24.
[7] abbreviates: plasma, plasma, after 6 g RG oral single dose, healthy volunteers, mean ± SD, n = 15, read-out: Cmax.
Where [8] appears, read: plasma, plasma, after 6 g RG oral single dose, mean ± SD, read-out: AUClast.

What is called Tmax is the time at which the peak concentration occurs. What is called Cmax is the peak of the concentration-time curve. Turning to `CC(C)=CCC[C@](C)(O)[C@H]1CC[C@]2(C)[C@@H]1[C@H](O)C[C@@H]1[C@@]3(C)CC[C@H](O[C@@H]4O[C@H](CO)[C@@H](O)[C@H](O)[C@H]4O)C(C)(C)[C@@H]3CC[C@]12C` [Rh2], the “AUC24 GMR (90% CI)” value is 18.17 fold and 18.17 (12.4, 26.62) * fold; the “AUClast GMR (90% CI)” value was 18.47 fold and 18.47 (12.74, 26.78) * fold; the “Cmax GMR (90% CI)” value was 20.27 fold and 20.27 (15.13, 27.17) * fold. Also, the Tmax (in vivo, after 6 g FRG oral single dose, median (min, max), read-out: Tmax) was determined as 3.02 h. Besides, under “in vivo, after 6 g RG oral single dose, median (min, max), read-out: Tmax”, the Tmax amounted to 3 h. Besides, for the setting “in vivo, plasma, after 6 g FRG oral single dose, 0 to 24 h, mean ± SD, read-out: AUC24”, the AUC is 0.135 ± 0.0444 µg·h/mL. The peak concentration (Cmax) (in vivo, plasma, after 6 g FRG oral single dose, healthy volunteers, mean ± SD, n = 15, read-out: Cmax) came to 33 ± 11.9 ng/mL. Besides, the AUC(0-t) (in vivo, plasma, after 6 g FRG oral single dose, mean ± SD, read-out: AUClast) is 0.133 ± 0.0427 µg·h/mL. The AUC (in vivo, plasma, after 6 g RG oral single dose, 0 to 24 h, mean ± SD, read-out: AUC24) is 0.00897 ± 0.00557 µg·h/mL. Further, the Cmax (in vivo, plasma, after 6 g RG oral single dose, healthy volunteers, mean ± SD, n = 15, read-out: Cmax) was 1.77 ± 1.17 ng/mL. Under “in vivo, plasma, after 6 g RG oral single dose, mean ± SD, read-out: AUClast”, the AUC(0-t) turned out to be 0.00835 ± 0.00431 µg·h/mL.

On to `CC(C)=CCC[C@](C)(O[C@@H]1O[C@H](CO)[C@@H](O)[C@H](O)[C@H]1O)[C@H]1CC[C@]2(C)[C@@H]1[C@H](O)C[C@@H]1[C@@]3(C)CC[C@H](O[C@@H]4O[C@H](CO)[C@@H](O)[C@H](O)[C@H]4O)C(C)(C)[C@@H]3CC[C@]12C` [Ginsenoside F2], for which the Plasma concentrations entry (after 6 g RG, F2 except one subject) is listed as “below the lower limit of quantification; also recorded: below the LLOQ”. In addition, the time to peak (Tmax) under setting [1] worked out at 4.03 h. Also, the AUC under setting [2] worked out at 0.142 ± 0.0343 µg·h/mL. The maximum concentration (Cmax) under setting [3] stood at 14.7 ± 3.58 ng/mL. Further, the AUC(0-t) under setting [4] came to 0.168 ± 0.0474 µg·h/mL.

With `CC(C)=CCC[C@](C)(O)[C@H]1CC[C@]2(C)[C@@H]1[C@H](O)C[C@@H]1[C@@]3(C)CC[C@H](O)C(C)(C)[C@@H]3[C@@H](O)C[C@]12C` [PPT, protopanaxatriol], the “AUC24 GMR (90% CI)” value is 1.87 fold and 1.87 (1.16, 3.01) ^† fold; the “AUClast GMR (90% CI)” value is 1.76 fold and 1.76 (1.17, 2.65) ^† fold; the “Cmax GMR (90% CI)” value is 2.56 fold and 2.56 (1.83, 3.57) * fold. Under setting [1], the Tmax is 6 h. The Tmax under setting [5] came to 19 h. Also, the AUC under setting [2] turned out to be 0.0637 ± 0.0428 µg·h/mL. The Cmax under setting [3] is 8.92 ± 5.38 ng/mL. For the same molecule, the AUC(0-t) under setting [4] was 0.083 ± 0.0594 µg·h/mL. For the same molecule, under setting [6], the AUC turned out to be 0.0341 ± 0.0247 µg·h/mL. Further, under setting [7], the Cmax is 3.5 ± 2 ng/mL. For the same molecule, under setting [8], the AUC(0-t) stood at 0.0457 ± 0.0321 µg·h/mL.

`CC(C)=CCC[C@](C)(O[C@@H]1O[C@H](CO[C@@H]2OC[C@H](O)[C@H](O)[C@H]2O)[C@@H](O)[C@H](O)[C@H]1O)[C@H]1CC[C@]2(C)[C@@H]1[C@H](O)C[C@@H]1[C@@]3(C)CC[C@H](O)C(C)(C)[C@@H]3CC[C@]12C` [CY, compound Y] had an AUC (in vivo, AUC24) of 0.0334 ± 0.00982 µg·h/mL. The AUC(0-t) (in vivo, AUClast) worked out at 0.0325 ± 0.00944 µg·h/mL. The molecule further gave a Cmax (in vivo, Cmax) of 8.38 ± 2.22 ng/mL. Also, the time to peak (Tmax) (in vivo, Tmax) worked out at 3.02 h.

`CC(C)=CCC[C@](C)(O)[C@H]1CC[C@]2(C)[C@@H]1[C@H](O)C[C@@H]1[C@@]3(C)CC[C@H](O)C(C)(C)[C@@H]3CC[C@]12C` [PPD, protopanaxadiol]: the “AUClast GMR (90% CI)” value is 4.97 (2.38, 10.34) ^‡ fold. Further, the time to peak (Tmax) under setting [1] worked out at 12 h. Also, the Tmax under setting [5] stood at 27.1 h. The AUC under setting [2] is 0.0487 ± 0.0411 µg·h/mL. Also, under setting [3], the maximum concentration (Cmax) was 5.65 ± 4.78 ng/mL. For the same molecule, under setting [4], the AUC(0-t) turned out to be 0.0922 ± 0.0965 µg·h/mL. Besides, the AUC under setting [6] was 0.0139 ± 0.0191 µg·h/mL. For the same molecule, the Cmax under setting [7] stood at 1.99 ± 1.62 ng/mL. Under setting [8], the AUC(0-t) is 0.0203 ± 0.0251 µg·h/mL.

Take `CC(C)=CCC[C@](C)(O[C@@H]1O[C@H](CO[C@@H]2O[C@H](CO)[C@@H](O)[C@H](O)[C@H]2O)[C@@H](O)[C@H](O)[C@H]1O)[C@H]1CC[C@]2(C)[C@@H]1[C@H](O)C[C@@H]1[C@@]3(C)CC[C@H](O[C@@H]4O[C@H](CO)[C@@H](O)[C@H](O)[C@H]4O[C@@H]4O[C@H](CO)[C@@H](O)[C@H](O)[C@H]4O)C(C)(C)[C@@H]3CC[C@]12C` [Rb1]: for the setting “after 6 g FRG”, the Plasma concentrations result is on record as “below the LLOQ”. Moreover, under setting [5], the Tmax was 8 h. The AUC under setting [6] came to 0.0365 ± 0.0256 µg·h/mL. Moreover, under setting [7], the maximum concentration (Cmax) came to 2.33 ± 1.61 ng/mL. For the same molecule, the AUC(0-t) under setting [8] was 0.0624 ± 0.0481 µg·h/mL.

As for `CC(C)=CCC[C@](C)(O[C@@H]1O[C@H](CO)[C@@H](O)[C@H](O)[C@H]1O)[C@H]1CC[C@]2(C)[C@@H]1[C@H](O)C[C@@H]1[C@@]3(C)CC[C@H](O)C(C)(C)[C@@H]3CC[C@]12C` [CK, compound K], the “AUC24 GMR (90% CI)” value was 64.86 fold and 64.86 (51.12, 82.29) * fold; the “AUClast GMR (90% CI)” value is 74.53 fold and 74.53 (59.32, 93.64) * fold; the “Cmax GMR (90% CI)” value was 69.23 fold and 69.23 (55.93, 85.69) * fold. For the setting “FRG versus RG”, the “Difference of median Tmax, FRG higher than RG” value is listed as 1 h. Besides, the Tmax under setting [1] was 3.02 h. For the same molecule, the AUC under setting [2] worked out at 8.71 ± 2.36 µg·h/mL. The maximum concentration (Cmax) under setting [3] is 1550 ± 394 ng/mL. The AUC(0-t) under setting [4] amounted to 9.44 ± 2.62 µg·h/mL. Also, under setting [6], the AUC is 0.158 ± 0.125 µg·h/mL. Moreover, the Cmax under setting [7] is 23.8 ± 12.2 ng/mL. For the same molecule, under setting [8], the AUC(0-t) is 0.145 ± 0.106 µg·h/mL.
